Measured values as given in patent US9598440B2, “Inhibitors of IRAK4 activity” (MERCK SHARP & DOHME CORP., priority 2012, dated 2017).

Target: IRAK4 (Homo sapiens (Human), UniProt Q9NWZ3)
Assay: Determination of IRAK4 kinase activity (IMAP fluorescence polarization, phosphorylation of fluorescent peptide substrate)
Type: biochemical
Conditions: 0.5 nM GST tagged IRAK4, 100 nM peptide substrate RP7030, 100 μM ATP, 30 minutes at 25° C.
Method: The kinase activity of IRAK4 is determined by its ability to catalyze the phosphorylation of a fluorescent polypeptide substrate. The extent of phosphorylation is measured using IMAP technology (Molecular Devices) where the phosphorylated fluorescent substrate binds to the large M(III)-based nanoparticles which reduces the rotational speed of the substrate and thus increases its fluorescent polarization (FP).
Procedure: A 20 μl reaction mixture contains 10 mM TriHCl, pH 7.2, 0.5 nM GST tagged IRAK4 (SignalChem), 100 nM fluorescent peptide substrate (RP7030, Molecular Devices), 100 μM ATP, 1 mM DTT, 1 mM MgCl2, and 0.01% Tween 20. The reaction is initiated by the addition of ATP. After incubation for 30 minutes at 25° C., 60 μl of Progressive IMAP Reagent (Molecular Devices) is added to stop the reaction. Change in RP7030's FP is determined by a FP reader (Analyst HT, LJL BioSystems). Analytical LCMS Conditions: • Condition A: Phenomenex Luna C18 (4.6×250 mm), 95:5 to 5:95 water:MeCN (0.05% TFA), over 10 min, hold 6 min. • Condition B: Agilent SBC (3.0×50 mm), solvent A: H20-0.1% TFA; • solvent B: ACN-0.1% TFA; GRADIENT TABLE: 0 min:10% B, 0.3 min: 10% B, 1.5 min: 95% B, 2.70 min: 95% B, 2.76 min: 10% B, stop time 3.60 min.

IRAK4, sequence (Q9NWZ3 whole entry): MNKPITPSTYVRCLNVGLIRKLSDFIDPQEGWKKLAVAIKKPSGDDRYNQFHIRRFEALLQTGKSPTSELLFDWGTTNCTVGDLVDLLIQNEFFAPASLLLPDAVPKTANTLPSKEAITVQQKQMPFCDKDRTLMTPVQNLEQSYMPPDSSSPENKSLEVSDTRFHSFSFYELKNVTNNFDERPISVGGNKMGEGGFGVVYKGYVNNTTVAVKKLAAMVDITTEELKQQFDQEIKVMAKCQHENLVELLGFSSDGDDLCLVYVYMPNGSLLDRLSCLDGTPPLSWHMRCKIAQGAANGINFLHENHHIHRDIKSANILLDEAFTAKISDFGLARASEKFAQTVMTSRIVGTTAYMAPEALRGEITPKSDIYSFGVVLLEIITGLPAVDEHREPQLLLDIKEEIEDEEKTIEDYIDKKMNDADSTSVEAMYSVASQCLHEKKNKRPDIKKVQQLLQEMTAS

Row | IC50 [nM] | SMILES
1 | 3 | Cc1cc(Nc2cc(N[C@H]3C[C@@H](C(C)(C)O)[C@H](O)[C@@H]3O)c(-c3ccc4ccccc4n3)cn2)cc(C)n1 (stereo in doubt) [Example 164, (1S,2R,3 S,5R)-3-((2-((2,6-dimethylpyridin-4-yl)amino)-5-(quinolin-2-yl)pyridin-4-yl)amino)-5-(2-hydroxypropan-2-yl)cyclopentane-1,2-diol]
2 | 333 | OC[C@H]1C[C@@H](Nc2nc(NCC3CC3)ncc2-c2nc3ccccc3s2)[C@H](O)[C@@H]1O [Example 15, (1R,2S,3R,5R)-3-((5-(benzo[d]thiazol-2-yl)-2-((cyclopropylmethyl)amino)pyrimidin-4-yl)amino)-5-(hydroxymethyl)cyclopentane-1,2-diol]
3 | 228 | COCCCNc1ncc(-c2nc3ccccc3s2)c(N[C@@H]2C[C@H](CO)[C@@H](O)[C@H]2O)n1 [Example 16, (1R,2S,3R,5R)-3-((5-(benzo[d]thiazol-2-yl)-2-((3-methoxypropyl)amino)pyrimidin-4-yl)amino)-5-(hydroxymethyl)cyclopentane-1,2-diol]
4 | 1080 | OC[C@H]1C[C@@H](Nc2nc(NC3CCOCC3)ncc2-c2nc3ccccc3s2)[C@H](O)[C@@H]1O [Example 17, (1R,2S,3R,5R)-3-((5-(benzo[d]thiazol-2-yl)-2-((tetrahydro-2H-pyran-4-yl)amino)pyrimidin-4-yl)amino)-5-(hydroxymethyl)cyclopentane-1,2-diol]
5 | 3010 | OC[C@H]1C[C@@H](Nc2nc(NC3CCCCC3)ncc2-c2nc3ccccc3s2)[C@H](O)[C@@H]1O [Example 18, (1R,2S,3R,5R)-3-((5-(benzo[d]thiazol-2-yl)-2-(cyclohexylamino)pyrimidin-4-yl)amino)-5-(hydroxymethyl)cyclopentane-1,2-diol]
6 | 104 | Nc1ncc(-c2ccc3ccccc3n2)c(N[C@@H]2C[C@H](CO)[C@@H](O)[C@H]2O)n1 [Example 19, (1R,2S,3R,5R)-3-((2-amino-5-(quinolin-2-yl)pyrimidin-4-yl)amino)-5-(hydroxymethyl)cyclopentane-1,2-diol]
7 | 24 | Nc1ncc(-c2nc3cnccc3s2)c(N[C@@H]2C[C@H](CO)[C@@H](O)[C@H]2O)n1 [Example 20, (1R,2S,3R,5R)-3-((2-amino-5-(thiazolo[4,5-c]pyridin-2-yl)pyrimidin-4-yl)amino)-5-(hydroxymethyl)cyclopentane-1,2-diol]

Second part, the compound before the results:

Row | SMILES | IC50 [nM]
8 | OC[C@H]1C[C@@H](Nc2nc(Nc3ccccc3)ncc2-c2nc3ccccc3s2)[C@H](O)[C@@H]1O [Example 1, (1R,2S,3R,5R)-3-((5-(benzo[d]thiazol-2-yl)-2-(phenylamino)pyrimidin-4-yl)amino)-5-(hydroxymethyl)cyclopentane-1,2-diol] | 20
9 | OC[C@H]1C[C@@H](Nc2nc(Nc3ccc(O)cc3)ncc2-c2nc3ccccc3s2)[C@H](O)[C@@H]1O [Example 2, (1R,2S,3R,5R)-3-((5-(benzo[d]thiazol-2-yl)-2-((4-hydroxyphenyl)amino)pyrimidin-4-yl)amino)-5-(hydroxymethyl)cyclopentane-1,2-diol] | 5.8
10 | OC[C@H]1C[C@@H](Nc2nc(Nc3cccc(O)c3)ncc2-c2nc3ccccc3s2)[C@H](O)[C@@H]1O [Example 3, (1R,2S,3R,5R)-3-((5-(benzo[d]thiazol-2-yl)-2-((3-hydroxyphenyl)amino)pyrimidin-4-yl)amino)-5-(hydroxymethyl)cyclopentane-1,2-diol] | 12
11 | COc1cccc(Nc2ncc(-c3nc4ccccc4s3)c(N[C@@H]3C[C@H](CO)[C@@H](O)[C@H]3O)n2)c1 [Example 4, (1R,2S,3R,5R)-3-((5-(benzo[d]thiazol-2-yl)-2-((3-methoxyphenyl)amino)pyrimidin-4-yl)amino)-5-(hydroxymethyl)cyclopentane-1,2-diol] | 137
12 | Nc1ncc(-c2nc3ccccc3o2)c(N[C@@H]2C[C@H](CO)[C@@H](O)[C@H]2O)n1 [Example 5, (1R,2S,3R,5R)-3-((2-amino-5-(benzo[d]oxazol-2-yl)pyrimidin-4-yl)amino)-5-(hydroxymethyl)cyclopentane-1,2-diol] | 2560
13 | OC[C@H]1C[C@@H](Nc2nc(Nc3ccnc(F)c3)ncc2-c2nc3ccccc3s2)[C@H](O)[C@@H]1O [Example 6, (1R,2S,3R,5R)-3-((5-(benzo[d]thiazol-2-yl)-2-((2-fluoropyridin-4-yl)amino)pyrimidin-4-yl)amino)-5-(hydroxymethyl)cyclopentane-1,2-diol] | 2560
14 | COc1cc(Nc2ncc(-c3nc4ccccc4s3)c(N[C@@H]3C[C@H](CO)[C@@H](O)[C@H]3O)n2)ccn1 [Example 7, (1R,2S,3R,5R)-3-((5-(benzo[d]thiazol-2-yl)-2-((2-methoxypyridin-4-yl)amino)pyrimidin-4-yl)amino)-5-(hydroxymethyl)cyclopentane-1,2-diol] | 4.6
15 | Cc1cnccc1Nc1ncc(-c2nc3ccccc3s2)c(N[C@@H]2C[C@H](CO)[C@@H](O)[C@H]2O)n1 [Example 8, (1R,2S,3R,5R)-3-((5-(benzo[d]thiazol-2-yl)-2-((3-methylpyridin-4-yl)amino)pyrimidin-4-yl)amino)-5-(hydroxymethyl)cyclopentane-1,2-diol] | 516
16 | Cc1cc(Nc2ncc(-c3nc4ccccc4s3)c(N[C@@H]3C[C@H](CO)[C@@H](O)[C@H]3O)n2)cc(C)n1 [Example 9, (1R,2S,3R,5R)-3-((5-(benzo[d]thiazol-2-yl)-2-((2,6-dimethylpyridin-4-yl)amino)pyrimidin-4-yl)amino)-5-(hydroxymethyl)cyclopentane-1,2-diol] | 0.32
17 | COc1ccc(Nc2ncc(-c3nc4ccccc4s3)c(N[C@@H]3C[C@H](CO)[C@@H](O)[C@H]3O)n2)cc1 [Example 10, (1R,2S,3R,5R)-3-((5-(benzo[d]thiazol-2-yl)-2-((4-methoxyphenyl)amino)pyrimidin-4-yl)amino)-5-(hydroxymethyl)cyclopentane-1,2-diol] | 14
18 | Nc1ncc(-c2nc(-c3ccccc3)cs2)c(N[C@@H]2C[C@H](CO)[C@@H](O)[C@H]2O)n1 [Example 11, (1R,2S,3R,5R)-3-((2-amino-5-(4-phenylthiazol-2-yl)pyrimidin-4-yl)amino)-5-(hydroxymethyl)cyclopentane-1,2-diol] | 409
19 | OC[C@H]1C[C@@H](Nc2nc(NC3COC3)ncc2-c2nc3ccccc3s2)[C@H](O)[C@@H]1O [Example 12, (1R,2S,3R,5R)-3-((5-(benzo[d]thiazol-2-yl)-2-(oxetan-3-ylamino)pyrimidin-4-yl)amino)-5-(hydroxymethyl)cyclopentane-1,2-diol] | 236
20 | OC[C@H]1C[C@@H](Nc2nc(Nc3cccc(F)c3)ncc2-c2nc3ccccc3s2)[C@H](O)[C@@H]1O [Example 13, (1R,2S,3R,5R)-3-((5-(benzo[d]thiazol-2-yl)-2-((3-fluorophenyl)amino)pyrimidin-4-yl)amino)-5-(hydroxymethyl)cyclopentane-1,2-diol] | 62
21 | NC(=O)Cc1cccc(Nc2ncc(-c3nc4ccccc4s3)c(N[C@@H]3C[C@H](CO)[C@@H](O)[C@H]3O)n2)c1 [Example 14, 2-(3-((5-(benzo[d]thiazol-2-yl)-4-(((1R,2S,3R,4R)-2,3-dihydroxy-4-(hydroxymethyl)cyclopentyl)amino)pyrimidin-2-yl)amino)phenyl)acetamide] | 5.4
